Test results published in US9751886B2, “4-amino-6-phenyl-6,7-dihydro[1,2,3]triazolo[1,5-A]pyrazine derivatives as inhibitors of beta-secretase (BACE)” (Janssen Pharmaceutica NV, priority 2013, dated 2017).

What was measured:
[1] = target: T1, recombinant BACE1 protein (Homo sapiens (Human), UniProt P56817); assay: BACE1 Biochemical FRET based assay - Method 1; details: 1 μg/ml BACE1, 10 μM substrate, 120 min, pH 5.0
Source text: (§1) This assay is a Fluorescence Resonance Energy Transfer Assay (FRET) based assay. The substrate for this assay is an APP derived 13 amino acids peptide that contains the ‘Swedish’ Lys-Met/Asn-Leu mutation of the amyloid precursor protein (APP) beta-secretase cleavage site. This substrate also contains two fluorophores: (7-methoxycoumarin-4-yl) acetic acid (Mca) is a fluorescent donor with excitation wavelength at 320 nm and emission at 405 nm and 2,4-Dinitrophenyl (Dnp) is a proprietary quencher acceptor. […] Upon cleavage by BACE1, the fluorophore Mca is separated from the quenching group Dnp, restoring the full fluorescence yield of the donor. The increase in fluorescence is linearly related to the rate of proteolysis.
Briefly in a 384-well format recombinant BACE1 protein in a final concentration of 1 μg/ml is incubated for 120 minutes at room temperature with […] substrate in incubation buffer (40 mM Citrate buffer pH 5.0, 0.04% PEG, 4% DMSO) in the absence or presence of compound. Next the amount of proteolysis is directly measured by fluorescence measurement at T=0 and T=120 (excitation at 320 nm and emission at 405 nm). Results are expressed in RFU (Relative Fluorescence Units), as difference between T120 and TO.

[2] = target: T1, recombinant BACE1 protein; assay: BACE1 Biochemical FRET based assay - Method 2; details: 0.04 μg/ml BACE1, 20 μM substrate, 450 min, pH 5.0
Source text: as §1
Briefly in a 384-well format recombinant BACE1 protein in a final concentration of 0.04 μg/ml is incubated for 450 minutes at room temperature with 20 μM substrate in incubation buffer (50 mM Citrate buffer pH 5.0, 0.05% PEG) in the presence of compound or DMSO. Next the amount of proteolysis is directly measured by fluorescence measurement (excitation at 320 nm and emission at 405 nm) at different incubation times (0, 30, 60, 90, 120 and 450 min). For every experiment a time curve (every 30 min between 0 min and 120 min) is used to determine the time where we find the lowest basal signal of the high control. The signal at this time (Tx) is used to subtract from the signal at 450 min. Results are expressed in RFU, as difference between T450 and Tx.

[3] = test system: Abeta 1-42 secreted by human neuroblastoma SKNBE2 cells expressing wild type hAPP695; assay: BACE1 cellular αLisa assay in SKNBE2 cells, Abeta 1-42; assay type: cell-based; details: 18 hours incubation
Experimental: (§2) In two αLisa assays the levels of Abeta total and Abeta 1-42 produced and secreted into the medium of human neuroblastoma SKNBE2 cells are quantified. The assay is based on the human neuroblastoma SKNBE2 expressing the wild type Amyloid Precursor Protein (hAPP695). The compounds are diluted and added to these cells, incubated for 18 hours and then measurements of Abeta 1-42 and Abeta total are taken. Abeta total and Abeta 1-42 are measured by sandwich αLisa. αLisa is a sandwich assay using biotinylated antibody AbN/25 attached to streptavidin coated beads and antibody Ab4G8 or cAb42/26 conjugated acceptor beads for the detection of Abeta total and Abeta 1-42 respectively. In the presence of Abeta total or Abeta 1-42, the beads come into close proximity. The excitation of the donor beads provokes the release of singlet oxygen molecules that trigger a cascade of energy transfer in the acceptor beads, resulting in light emission.

[4] = test system: Abeta total secreted by human neuroblastoma SKNBE2 cells expressing wild type hAPP695; assay: BACE1 cellular αLisa assay in SKNBE2 cells, Abeta total; assay type: cell-based; details: 18 hours incubation
Experimental: as §2

[5] = target: recombinant BACE2 protein (Homo sapiens (Human), UniProt Q9Y5Z0); assay: BACE2 Biochemical FRET based assay; details: 0.4 μg/ml BACE2, 10 μM substrate, 450 min, pH 5.0
Sequence of recombinant BACE2 protein (Q9Y5Z0 63-518): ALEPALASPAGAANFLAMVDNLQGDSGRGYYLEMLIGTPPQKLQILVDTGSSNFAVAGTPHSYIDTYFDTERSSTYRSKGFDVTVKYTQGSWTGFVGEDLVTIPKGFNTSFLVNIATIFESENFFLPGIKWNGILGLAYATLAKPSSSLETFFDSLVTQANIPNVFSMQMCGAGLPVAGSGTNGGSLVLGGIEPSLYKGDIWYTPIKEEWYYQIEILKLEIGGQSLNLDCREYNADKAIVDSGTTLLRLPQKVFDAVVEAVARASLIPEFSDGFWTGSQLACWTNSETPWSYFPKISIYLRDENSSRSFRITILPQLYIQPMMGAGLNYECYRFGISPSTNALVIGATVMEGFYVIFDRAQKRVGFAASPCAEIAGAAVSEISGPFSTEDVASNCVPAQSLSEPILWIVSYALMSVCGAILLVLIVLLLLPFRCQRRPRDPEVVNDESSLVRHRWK
Source text: as §1, with “assay” for “assay is an APP derived 13 amino acids peptide that”, “the beta-secretase,” for “BACE1,”
Briefly in a 384-well format recombinant BACE2 protein in a final concentration of 0.4 μg/ml is incubated for 450 minutes at room temperature with 10 μM substrate in incubation buffer (50 mM Citrate buffer pH 5.0, 0.05% PEG, no DMSO) in the absence or presence of compound. Next the amount of proteolysis is directly measured by fluorescence measurement at T=0 and T=450 (excitation at 320 nm and emission at 405 nm). Results are expressed in RFU (Relative Fluorescence Units), as difference between T450 and TO.

T1 sequence (P56817 46-501): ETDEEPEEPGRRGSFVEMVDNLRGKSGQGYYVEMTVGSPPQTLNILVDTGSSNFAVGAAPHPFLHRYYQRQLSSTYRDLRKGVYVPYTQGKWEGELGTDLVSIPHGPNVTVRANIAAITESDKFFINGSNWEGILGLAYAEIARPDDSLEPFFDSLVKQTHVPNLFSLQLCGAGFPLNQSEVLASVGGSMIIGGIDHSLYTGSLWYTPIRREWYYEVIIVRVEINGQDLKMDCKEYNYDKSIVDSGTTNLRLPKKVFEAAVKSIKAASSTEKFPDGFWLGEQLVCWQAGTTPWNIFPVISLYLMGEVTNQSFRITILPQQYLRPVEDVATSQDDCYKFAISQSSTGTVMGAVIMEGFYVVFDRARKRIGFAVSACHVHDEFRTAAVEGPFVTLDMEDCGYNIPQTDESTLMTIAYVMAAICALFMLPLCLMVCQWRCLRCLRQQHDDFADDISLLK

IC50 ([1]; read-out: BACE1 Biochemical FRET based assay - Method 1 pIC50 (converted)) [nM]	BACE1 Biochemical FRET based assay - Method 2 pIC50 [2]	IC50 ([3]; Homo sapiens, read-out: Cellular αLisa assay in SKNBE2 cells Abeta 42 pIC50 (converted)) [nM]	IC50 ([4]; Homo sapiens, read-out: Cellular αLisa assay in SKNBE2 cells Abetatotal pIC50 (converted)) [nM]	BACE2 Biochemical FRET based assay pIC50 [5]	BACE1 Biochemical FRET based assay - Method 1 pIC50 [1]	Cellular αLisa assay in SKNBE2 cells Abeta 42 pIC50 [3]	Cellular αLisa assay in SKNBE2 cells Abetatotal pIC50 [4]	SMILES
2.04	8.69	1.82	1.62	7.81				COc1cnc(C(=O)Nc2ccc(F)c([C@]3(C)Cn4nncc4C(N)=N3)c2)cn1 [Compound 3, N-{3-[(6R)-4-Amino-6-methyl-6,7-dihydro[1,2,3]triazolo[1,5-a]pyrazin-6-yl]-4-fluorophenyl}-5-methoxypyrazine-2-carboxamide]
	8.75			8.56	8.76	8.77	8.88	C[C@@]1(c2cc(NC(=O)c3ccc(Cl)cn3)ccc2F)Cn2nncc2C(N)=N1 [Compound 4]
